In general, IC50 refers to the point on the concentration scale where inhibition reaches its midpoint. As a reminder, the melting point is the temperature, or range, at which the solid turns liquid.

Data set [1] concerns HepG2 cell line. The data set is described as follows: MTT cytotoxicity assay, HepG2. It counts as cell-based. As to conditions: Homo sapiens. The text has this: (§1) The human HCC cell line, HEPG-2, was obtained from the American Type Culture Collection and used to evaluate the effects of the following drugs. MCF-7(ATCC® HTB-22TM, Manassas, VA, USA) breast cancer cells were derived from mammary gland or breast at a metastatic site. […] The human Caco-2 cell line, Caco-2, was obtained from the American Type Culture Collection and used to evaluate the effects of the following drugs. […], Manassas, VA, USA), epithelial-like lung carcinoma, was derived from lung tissue at a metastatic site. The human A549 cell line, A549, was obtained from the American Type Culture Collection and used to evaluate the effects of the following drugs. […] LLC., Burlington, VT, USA). Penicillin/streptomycin (Gibco®, Grand Island, NY, USA) was applied at 100 units/mL and 100 μg/mL, respectively. Growth inhibition was determined by classic MTT assay. In brief, HEPG2, A549, MCF-7 and Caco-2 cells were added to a cell culture MTT assay plate at a concentration of 5 × 10^3 cells/well in 1640 medium and cultured overnight. The different treatments were added on day 1 according to the calculated doses except on the control well and standard, then incubated for 24 h.

Data set [2] concerns MCF-7 cell line. The data set can be described thus: MTT cytotoxicity assay, MCF-7. It counts as cell-based. As to conditions: Homo sapiens, MCF7, read-out: IC50 MCF-7 Breast Cancer.
Description: as §1
(In general: Formazan colour is commonly taken as a measure of viable cells.)

For data set [3], the system named is CaCo-2 cell line. The data set can be described thus: MTT cytotoxicity assay, CaCo-2. The following applies: Homo sapiens, read-out: IC50 CaCo-2 Colon Cancer. Type of data set: cell-based. The text has this: (§2) • HepG2 [HEPG2] (ATCC® HB-8065™, Manassas, VA, USA) epithelial hepatocellular carcinoma was derived from the liver tissue of a person (a well-differentiated hepatocellular carcinoma). The human HCC cell line, HEPG-2, was obtained from the American Type Culture Collection and used to evaluate the effects of the following drugs. MCF-7(ATCC® HTB-22™, Manassas, VA, USA) breast cancer cells were derived from mammary gland or breast at a metastatic site. The human MCF-7 cell line, MCF-7, was obtained from the American Type Culture Collection and used to evaluate the effects of the following drugs. • Caco 2 [Caco2] (ATCC® HTB 37™, Manassas, VA, USA) epithelial colorectal adenocarcinoma was derived from the colon at a metastatic site. The human Caco-2 cell line, Caco-2, was obtained from the American Type Culture Collection and used to evaluate the effects of the following drugs. A549 (ATCC® CCL-185™, Manassas, VA, USA), epithelial-like lung carcinoma, was derived from lung tissue at a metastatic site. The human A549 cell line, A549, was obtained from the American Type Culture Collection and used to evaluate the effects of the following drugs.
(§3) HEPG2, A549, MCF-7 and Caco-2 cells were maintained in a monolayer culture in a T-25 flask at 5% CO2 and 37 °C in DMEM (Lonza, Verviers, Belgium) and supplemented with 10% (v/v) FBS (Sigma-Aldrich Co. LLC., Burlington, VT, USA). Penicillin/streptomycin (Gibco®, Grand Island, NY, USA) was applied at 100 units/mL and 100 µg/mL, respectively.
(§4) Growth inhibition was determined by classic MTT assay. In brief, HEPG2, A549, MCF-7 and Caco-2 cells were added to a cell culture MTT assay plate at a concentration of 5 × 10^3 cells/well in 1640 medium and cultured overnight. The different treatments were added on day 1 according to the calculated doses except on the control well and standard, then incubated for 24 h. Measurement was achieved using a microplate reader (Model 550, Bio-Rad, Hercules, CA, USA).

The subject of data set [4] is A-549 cell line. The data set is described as follows: MTT cytotoxicity assay, A-549. It counts as cell-based. The following applies: Homo sapiens, A549, read-out: IC50 A-549 Lung Carcinoma.
Description: as §2, §3, §4

Data set [5] has as its system HepG2, MCF-7, A-549 and CaCo-2 cell lines. The data set can be described thus: MTT cytotoxicity assay, summary over all tested cell lines. It counts as cell-based, human. As to conditions: for IC50: Homo sapiens, range over compounds and cell lines, read-out: IC50 values versus all tested cell lines (collective range); for cytotoxic effect on the four cancer cell lines: in words.
Description: as §2, §3, §4

Data set [6] deals with VEGF protein expression level in HepG2 cell line. The data set can be described thus: VEGF ELISA in HepG2 cell culture supernatant. Type of data set: cell-based, human. Also on record: concentration or dose not given beside the values. As to conditions: compared to control. As to the method: (§5) Total protein was assayed using the method described by Bradford. The VEGF ELISA Assay Kit (VEGF) and ELISA Kit, (#VGF31-[…]) were purchased from (Eagle Biosciences CO., LTD, Amherst, NH, USA). The kit is a sandwich enzyme immunoassay for the in vitro quantitative determination of VEGF concentrations in cell culture supernates, serum and plasma according to the manufacturer's instructions.
In general terms: ELISA stands for enzyme-linked immunosorbent assay.

Data set [7] deals with VEGF protein expression level in MCF-7 cell line. The data set is described as follows: VEGF ELISA in MCF-7 cell culture supernatant. The following applies: MCF-7, ELISA, compared to control. It counts as cell-based, human. Also on record: concentration or dose not given beside the values. As to the method: as §5
The subject of data set [8] is VEGFR-2 protein expression level in HepG2 cell line. The data set can be described thus: Human VEGF receptor-2 ELISA in HepG2. It counts as cell-based. Also on record: concentration or dose not given beside the values. As to conditions: compared to control. As to the method: (§6) Total protein was assayed using the method described by Bradford. The Human VEGF receptor-2 ELISA Kit (ab213476), (96 tests) was purchased from (abcam®, Waltham, MA, USA). The kit is a sandwich enzyme immunoassay for the in vitro quantitative measurement of human VEGFR-2 in tissue homogenates, cell lysates and other biological fluids according to the manufacturer’s instructions.

Data set [9] deals with VEGFR-2 protein expression level in MCF-7 cell line. The data set can be described thus: Human VEGF receptor-2 ELISA in MCF-7. As to conditions: MCF-7, ELISA, compared to control. Also on record: concentration or dose not given beside the values. Type of data set: cell-based. As to the method: as §6
In data set [10] the test system is VEGF gene expression level in HepG2 cell line. The data set is described as follows: Real-time PCR of VEGF gene expression, HepG2. Type of data set: cell-based, human. As to conditions: HepG2, 3 days of treatment, compared to control, in words. As to the method: RT-PCR was applied to evaluate the VEGF gene expression level. Briefly, total RNA was extracted, and the extracted total RNA concentration was determined using a NanoDrop 2000 spectrophotometer (Thermo Fisher, Waltham, MA, USA). To determine the relative expression levels, the 2^−ΔΔCT method was used. NCBI/Primer Blast was used to define the primer sequences. The experiments were performed in quadruplicate. The primer sequences of VEGF and β-actin genes are listed below: […]
For orientation: Quantitative PCR measures a nucleic acid by following its amplification.

The mark [11] stands for this setting: read-out: IC50 HepG2 Livercarcinoma.

Structures are written as SMILES. Like-named read-outs stand apart in the source and are kept apart here.

As for `Cc1ccc(N=Nc2c(N)n[nH]c2N)cc1` [Compound 1, 4-(p-tolyldiazenyl)-1H-pyrazole-3,5-diamine], the 50% inhibitory concentration (IC50) was 20 µM in data set [1] (setting [11]); 50 µM in data set [2]; 18.2 µM in [3]; 15.1 µM in data set [4]; 6 to 50 µM in data set [5]. The “VEGF 24 h % Inhibition” value in data set [6] is 23%; in data set [7], 20%. Further, the “VEGF 72 h % Inhibition” value was 33.3% in [6] and 50% in data set [7]. In addition, the “VEGFR-2 24 h % Inhibition” value in data set [8] is on record as 52.6%; in [9] it was 33.3%. In addition, the “VEGFR-2 72 h % Inhibition” value in data set [8] is on record as 38.5%; in [9], 50%.
`Cc1ccc(N=Nc2c(N)nn3c(N)c(N=Nc4ccc(S(=O)(=O)N=C(N)N)cc4)c(O)nc23)cc1` [Compound 2a, 4-((2,7-Diamino-5-hydroxy-3-(4-tolyldiazenyl)pyrazolo[1,5-a]pyrimidin-6-yl)diazenyl)-N-(diaminomethylene)benzenesulfonamide] yielded a melting point of 268 to 270 °C. The IC50 in [1] (TPGS-coated vs uncoated niosomes vs pure compound, read-out: IC50 Hepg2 Liver Carcinoma) is 6.5 µM. Besides, in [1] (setting [11]), the IC50 was found to be 6.2 µM. Also, in data set [2], the half-maximal inhibitory concentration (IC50) amounted to 20 µM. Further, the IC50 in [3] came to 12.5 µM. Further, the IC50 in data set [4] turned out to be 10 µM. Also, the 50% inhibitory concentration (IC50) in data set [5] was 6 to 50 µM. In [6], the “VEGF 24 h % Inhibition” value stood at 38.5% and the “VEGF 72 h % Inhibition” value is given as 33.3%. For the same compound, in [7], the “VEGF 24 h % Inhibition” value stood at 40% and the “VEGF 72 h % Inhibition” value is on record as 50%. In data set [8], the “VEGFR-2 24 h % Inhibition” value is recorded as 47.4% and the “VEGFR-2 72 h % Inhibition” value turned out to be 38.5%. Also, in data set [9], the “VEGFR-2 24 h % Inhibition” value came out at 50% and the “VEGFR-2 72 h % Inhibition” value came to 50%. Also, the “VEGF gene expression level” value in data set [10] is given as “great inhibition”.
Take `Cc1ccc(N=Nc2c(N)nn3c(N)c(N=Nc4cccc([N+](=O)[O-])c4)c(O)nc23)cc1` [Compound 2b, 2,7-diamino-6-((3-nitrophenyl)diazenyl)-3-(4-tolyldiazenyl)pyrazolo[1,5-a]pyrimidin-5-ol]: the melting point was 234 to 236 °C. The “cytotoxic effect on the four cancer cell lines” value (“cytotoxic effect” below) in data set [5] is recorded as “no cytotoxic effects even at high doses”.
Compound `Cc1ccc(N=Nc2c(N)nn3c(C)c(N=Nc4ccc(S(=O)(=O)N=C(N)N)cc4)c(C)nc23)cc1` [Compound 3a, 4-((2-Amino-5,7-dimethyl-3-(4-tolyldiazenyl)pyrazolo[1,5-a]pyrimidin-6-yl)diazenyl)-N-(diaminomethylene)benzenesulfonamide] yielded a melting point of 250 to 252 °C. In addition, in [5], the “cytotoxic effect” value is recorded as “no cytotoxic effects even at high doses”.
Compound `Cc1ccc(N=Nc2c(N)nn3c(C)c(N=Nc4cccc([N+](=O)[O-])c4)c(C)nc23)cc1` [Compound 3b, 5,7-Dimethyl-6-((3-nitrophenyl)diazenyl)-3-(4-tolyldiazenyl)pyrazolo[1,5-a]pyrimidin-2-amine] displayed a melting point of 256 to 258 °C. The “cytotoxic effect” value in data set [5] is reported as “no cytotoxic effects even at high doses”.
For `Cc1ccc(N=Nc2c(N)nn3c(C)c(N=Nc4ccc(S(=O)(=O)N=C(N)N)cc4)c(=O)[nH]c23)cc1` [Compound 4a, 4-((2-Amino-7-methyl-5-oxo-3-(4-tolyldiazenyl)-4,5-dihydropyrazolo[1,5-a]pyrimidin-6-yl)diazenyl)-N-(diaminomethylene)benzenesulfonamide], the melting point was in the range of 272 to 274 °C. Further, in data set [5], the “cytotoxic effect” value is “no cytotoxic effects even at high doses”.
`Cc1ccc(N=Nc2c(N)nn3c2NC(=O)C(=NNc2ccc(S(=O)(=O)N=C(N)N)cc2)C3=O)cc1` [Compound 5, 4-(2-(2-Amino-5,7-Dioxo-3-(4-Tolyldiazenyl)-4,5-Dihydropyrazolo[1,5-a]Pyrimidin-6(7H)-Ylidene)Hydrazinyl)-N-(Diaminomethylene)Benzenesulfonamide]: the melting point lay in the range of 278 to 280 °C. Besides, the “cytotoxic effect” value in data set [5] is on record as “no cytotoxic effects even at high doses”.
On to `COc1ccc(-c2nc3c(N=Nc4ccc(C)cc4)c(N)nn3c(N)c2C#N)cc1` [Compound 6, 2,7-Diamino-5-(4-Methoxyphenyl)-3-(4-Tolyldiazenyl)Pyrazolo[1,5-a]Pyrimidine-6-Carbonitrile], for which the melting point is 230 to 232 °C. Moreover, the “cytotoxic effect” value in data set [5] is “no cytotoxic effects even at high doses”.
Turning to `CO[C@H]1C[C@@H]2CC[C@@H](C)[C@@](O)(O2)C(=O)C(=O)N2CCCC[C@H]2C(=O)O[C@H]([C@H](C)C[C@@H]2CC[C@@H](OCCO)[C@H](OC)C2)CC(=O)[C@H](C)/C=C(\C)[C@@H](O)[C@@H](OC)C(=O)[C@H](C)C[C@H](C)/C=C/C=C/C=C/1C` [Everolimus, reference compound], the half-inhibitory concentration (IC50) in data set [2] was found to be 3 µM. In data set [7], the “VEGF 24 h % Inhibition” value is 50% and the “VEGF 72 h % Inhibition” value is 62.5%. Further, in data set [9], the “VEGFR-2 24 h % Inhibition” value amounted to 40% and the “VEGFR-2 72 h % Inhibition” value came to 50%.
Take `CNC(=O)c1cc(Oc2ccc(NC(=O)Nc3ccc(Cl)c(C(F)(F)F)c3)c(F)c2)ccn1` [Regorafenib, reference compound]: the half-maximal inhibitory concentration (IC50) in data set [1] (setting [11]) was found to be 3 µM. Further, in data set [6], the “VEGF 24 h % Inhibition” value is 70.8% and the “VEGF 72 h % Inhibition” value was 75.4%. Moreover, in [8], the “VEGFR-2 24 h % Inhibition” value is listed as 62% and the “VEGFR-2 72 h % Inhibition” value is recorded as 55.6%.
For `CNC(=O)c1cc(Oc2ccc(NC(=O)Nc3ccc(Cl)c(C(F)(F)F)c3)cc2)ccn1` [Sorafenib, reference compound], the concentration for half-maximal inhibition (IC50) in data set [1] (setting [11]) amounted to 6 µM.

The values above are taken from article PMC8949375, “Design, Green Synthesis and Tailoring of Vitamin E TPGS Augmented Niosomal Nano-Carrier of Pyrazolopyrimidines as Potential Anti-Liver and Breast Cancer Agents with Accentuated Oral Bioavailability” (Pharmaceuticals, 2022).
